Like-named read-outs stand apart in the source and are kept apart here.
Tested on: PC-3 PIP and PC-3 flu tumors

`O=C(O)CC[C@H](NC(=O)N[C@@H](CCCCNC(=O)CCCCCCC(=O)NCCCCNC(=S)Nc1ccc(CC2CN(CC(=O)O)CCN(CC(=O)O)CCN(CC(=O)O)CCN2CC(=O)O)cc1)C(=O)O)C(=O)O.[203Pb+2]` (some centres unmarked) [^203Pb-SR-VI-71] was tested, and the PIP/flu ratio (1 H) was 98, the “Tissue biodistribution, Blood” value (1 H) was 0.60 ± 0.05 and the “Tissue biodistribution, PC-3 PIP” value (1 H) was 41.88 ± 7.60. For the same compound, the “Tissue biodistribution, PC-3 flu” value (1 H) was 0.43 ± 0.11, the “Tissue biodistribution, Sm intestine” value (1 H) was 0.31 ± 0.05 and the “Tissue biodistribution, bladder” value (1 H) was 5.96 ± 2.24. For the same compound, the “Tissue biodistribution, fat” value (1 H) was 0.77 ± 0.29, the “Tissue biodistribution, heart” value (1 H) was 0.30 ± 0.03 and the “Tissue biodistribution, kidney” value (1 H) was 75.18 ± 9.94. The “Tissue biodistribution, liver” value (1 H) was 1.09 ± 0.07, the “Tissue biodistribution, lung” value (1 H) was 1.20 ± 0.19 and the “Tissue biodistribution, muscle” value (1 H) was 0.22 ± 0.14. The “Tissue biodistribution, pancreas” value (1 H) was 0.49 ± 0.09, the “Tissue biodistribution, salivary gland” value (1 H) was 1.78 ± 0.69 and the “Tissue biodistribution, spleen” value (1 H) was 5.07 ± 1.68. For the same compound, the “Tissue biodistribution, stomach” value (1 H) was 0.30 ± 0.04, the PIP/flu ratio (2 H) was 130 and the “Tissue biodistribution, Blood” value (2 H) was 0.31 ± 0.04. For the same compound, the “Tissue biodistribution, PC-3 PIP” value (2 H) was 38.14 ± 6.30, the “Tissue biodistribution, PC-3 flu” value (2 H) was 0.29 ± 0.14 and the “Tissue biodistribution, Sm intestine” value (2 H) was 0.23 ± 0.04. The “Tissue biodistribution, bladder” value (2 H) was 10.40 ± 3.21, the “Tissue biodistribution, fat” value (2 H) was 0.31 ± 0.22 and the “Tissue biodistribution, heart” value (2 H) was 0.14 ± 0.06. For the same compound, the “Tissue biodistribution, kidney” value (2 H) was 39.35 ± 7.28, the “Tissue biodistribution, liver” value (2 H) was 1.01 ± 0.21 and the “Tissue biodistribution, lung” value (2 H) was 0.64 ± 0.14. For the same compound, the “Tissue biodistribution, muscle” value (2 H) was 0.22 ± 0.07, the “Tissue biodistribution, pancreas” value (2 H) was 0.29 ± 0.05 and the “Tissue biodistribution, salivary gland” value (2 H) was 0.93 ± 0.07. The “Tissue biodistribution, spleen” value (2 H) was 1.59 ± 0.58, the “Tissue biodistribution, stomach” value (2 H) was 0.15 ± 0.03 and the PIP/flu ratio (4 H) was 178. The “Tissue biodistribution, Blood” value (4 H) was 0.24 ± 0.02, the “Tissue biodistribution, PC-3 PIP” value (4 H) was 34.74 ± 7.37 and the “Tissue biodistribution, PC-3 flu” value (4 H) was 0.20 ± 0.06. For the same compound, the “Tissue biodistribution, Sm intestine” value (4 H) was 0.15 ± 0.04, the “Tissue biodistribution, bladder” value (4 H) was 1.94 ± 0.49 and the “Tissue biodistribution, fat” value (4 H) was 0.31 ± 0.18. The “Tissue biodistribution, heart” value (4 H) was 0.09 ± 0.01, the “Tissue biodistribution, kidney” value (4 H) was 22.75 ± 6.22 and the “Tissue biodistribution, liver” value (4 H) was 0.92 ± 0.09. The “Tissue biodistribution, lung” value (4 H) was 0.28 ± 0.04, the “Tissue biodistribution, muscle” value (4 H) was 0.06 ± 0.02 and the “Tissue biodistribution, pancreas” value (4 H) was 0.24 ± 0.05. For the same compound, the “Tissue biodistribution, salivary gland” value (4 H) was 0.29 ± 0.02, the “Tissue biodistribution, spleen” value (4 H) was 0.72 ± 0.16 and the “Tissue biodistribution, stomach” value (4 H) was 0.13 ± 0.03. The PIP/flu ratio (24 H) was 194, the “Tissue biodistribution, Blood” value (24 H) was 0.21 ± 0.02 and the “Tissue biodistribution, PC-3 PIP” value (24 H) was 27.92 ± 7.01. The “Tissue biodistribution, PC-3 flu” value (24 H) was 0.14 ± 0.01, the “Tissue biodistribution, Sm intestine” value (24 H) was 0.04 ± 0.03 and the “Tissue biodistribution, bladder” value (24 H) was 0.31 ± 0.16. For the same compound, the “Tissue biodistribution, fat” value (24 H) was 0.05 ± 0.06, the “Tissue biodistribution, heart” value (24 H) was 0.07 ± 0.01 and the “Tissue biodistribution, kidney” value (24 H) was 7.01 ± 0.80. The “Tissue biodistribution, liver” value (24 H) was 0.64 ± 0.04, the “Tissue biodistribution, lung” value (24 H) was 0.16 ± 0.01 and the “Tissue biodistribution, muscle” value (24 H) was 0.04 ± 0.03. The “Tissue biodistribution, pancreas” value (24 H) was 0.09 ± 0.06, the “Tissue biodistribution, salivary gland” value (24 H) was 0.10 ± 0.05 and the “Tissue biodistribution, spleen” value (24 H) was 0.24 ± 0.02. For the same compound, the “Tissue biodistribution, stomach” value (24 H) was 0.07 ± 0.01.
With `NC(=O)CN1CCN(CC(N)=O)CCN(CC(N)=O)C(Cc2ccc(NC(=S)NCCCCNC(=O)CCCCCCC(=O)NCCCC[C@H](NC(=O)N[C@@H](CCC(=O)O)C(=O)O)C(=O)O)cc2)CN(CC(N)=O)CC1.[203Pb+2]` (some centres unmarked) [^203Pb-SR-IX-11] the PIP/flu ratio (2 H) was 114, the “Tissue biodistribution, Blood” value (2 H) was 0.07 ± 0.01 and the “Tissue biodistribution, PC-3 PIP” value (2 H) was 21.64 ± 1.23. The “Tissue biodistribution, PC-3 flu” value (2 H) was 0.19 ± 0.04, the “Tissue biodistribution, Sm intestine” value (2 H) was 0.25 ± 0.15 and the “Tissue biodistribution, bladder” value (2 H) was 8.64 ± 0.77. For the same compound, the “Tissue biodistribution, fat” value (2 H) was 1.54 ± 1.64, the “Tissue biodistribution, heart” value (2 H) was 0.07 ± 0.01 and the “Tissue biodistribution, kidney” value (2 H) was 3.61 ± 0.81. For the same compound, the “Tissue biodistribution, liver” value (2 H) was 0.21 ± 0.01, the “Tissue biodistribution, lung” value (2 H) was 0.24 ± 0.03 and the “Tissue biodistribution, muscle” value (2 H) was 0.78 ± 0.83. The “Tissue biodistribution, pancreas” value (2 H) was 0.06 ± 0.00, the “Tissue biodistribution, salivary gland” value (2 H) was 0.35 ± 0.10 and the “Tissue biodistribution, spleen” value (2 H) was 0.25 ± 0.1. The “Tissue biodistribution, stomach” value (2 H) was 0.12 ± 0.00.

Reference: patent publication US10683272B2 (THE JOHNS HOPKINS UNIVERSITY, priority 2014, dated 2020)
